Values after ≈ are worked out from the molar mass of the structure shown.
Experiments:
Assay in all cases: Antibiotic activity, MIC
Format in all cases: cell-based
S. aureus = details: for MIC: Staphylococcus aureus
C. albicans = details: for MIC: Candida albicans
E. Coli = details: for MIC: Escherichia coli

| SMILES | MIC (S. aureus) | MIC (C. albicans) | MIC (E. Coli) | MIC Values (S. aureus) | MIC Values (C. albicans) | MIC Values (E. Coli) |
| --- | --- | --- | --- | --- | --- | --- |
| CC(CCC(=O)O)[C@H]1CCC2C3CC[C@@H]4C[C@H](NCCN)CC[C@]4(C)C3C[C@H](O)[C@@]21C (stereo partly shown) [drawing 66] | 16 to 32 µg/mL (≈ 36.8 to 73.6 µM) | 32 µg/mL (≈ 73.6 µM) | 64 µg/mL (≈ 147 µM) |  |  |  |
| COC(=O)CCC(C)[C@H]1CCC2C3C[C@@H](O)[C@H]4C[C@@H](NCCN)CC[C@]4(C)C3CC[C@@]21C (stereo partly shown) | 1 µg/mL (≈ 2.23 µM) | 2 to 4 µg/mL (≈ 4.46 to 8.91 µM) | 8 to 16 µg/mL (≈ 17.8 to 35.7 µM) |  |  |  |
| CC(CCC(=O)O)[C@H]1CCC2C3C[C@@H](O)[C@H]4C[C@@H](NCCCNCCCCNCCCN)CC[C@]4(C)C3CC[C@@]21C (stereo partly shown) | 16 µg/mL (≈ 27.7 µM) | 4 µg/mL (≈ 6.93 µM) | 16 µg/mL (≈ 27.7 µM) |  |  |  |
| COC(=O)CCC(C)[C@H]1CCC2C3CC[C@@H]4C[C@H](NCCCNCCCCNCCCN)CC[C@]4(C)C3C[C@H](O)[C@@]21C (stereo partly shown) [drawing 72] | 2 µg/mL (≈ 3.38 µM) | 8 µg/mL (≈ 13.5 µM) | 16 µg/mL (≈ 27.1 µM) |  |  |  |
| COC(=O)CCC(C)[C@H]1CCC2C3C[C@@H](O)[C@H]4C[C@H](NCCN)CC[C@]4(C)C3CC[C@@]21C (stereo partly shown) [drawing 67] | 16 µg/mL (≈ 35.7 µM) | 8 µg/mL (≈ 17.8 µM) | 32 to 64 µg/mL (≈ 71.3 to 143 µM) |  |  |  |
| CC(C)CCCC(C)[C@H]1CCC2C3C(CC[C@@]21C)[C@@]1(C)CC[C@@H](N)C[C@@H]1C[C@H]3O (stereo partly shown) | 2 µg/mL (≈ 4.95 µM) | 2 µg/mL (≈ 4.95 µM) | > 256 µg/mL |  |  |  |
| CC(CCC(=O)O)[C@H]1CCC2C3C[C@@H](O)[C@H]4C[C@@H](NCCN)CC[C@]4(C)C3CC[C@@]21C (stereo partly shown) [drawing 69] | > 256 µg/mL | > 256 µg/mL | > 256 µg/mL |  |  |  |
| COC(=O)CCC(C)[C@H]1CCC2C3CC[C@H]4C[C@@H](NCCCNCCCCNCCCN)CC[C@]4(C)C3CC[C@@]21C (stereo partly shown) [drawing 75] | 1 to 2 µg/mL (≈ 1.74 to 3.48 µM) | 2 µg/mL (≈ 3.48 µM) | 32 µg/mL (≈ 55.7 µM) |  |  |  |
| COC(=O)CCC(C)[C@H]1CCC2C3C(CC[C@@]21C)[C@@]1(C)CC[C@H](NCCCNCCCCNCCCN)C[C@H]1C[C@H]3O (stereo partly shown) [drawing 60] | 8 µg/mL (≈ 13.5 µM) | 2 µg/mL (≈ 3.38 µM) | 64 µg/mL (≈ 108 µM) |  |  |  |
| COC(=O)CCC(C)[C@H]1CCC2C3C(CC[C@@]21C)[C@@]1(C)CC[C@@H](NCCN)C[C@H]1C[C@H]3O (stereo partly shown) [drawing 59] | 16 µg/mL (≈ 35.7 µM) | 16 µg/mL (≈ 35.7 µM) | 16 µg/mL (≈ 35.7 µM) |  |  |  |
| CC(C)CCCC(C)[C@H]1CCC2C3C(CC[C@@]21C)[C@@]1(C)CC[C@@H](NCCCNCCCCN)C[C@@H]1C[C@H]3O (stereo partly shown) [drawing 56] | 4 µg/mL (≈ 7.52 µM) | 2 µg/mL (≈ 3.76 µM) | 32 µg/mL (≈ 60.2 µM) |  |  |  |
| CC(CCC(=O)O)[C@H]1CCC2C3C(CC[C@@]21C)[C@@]1(C)CC[C@H](NCCN)C[C@H]1C[C@H]3O (stereo partly shown) [drawing 64] | 128 µg/mL (≈ 294 µM) | 256 µg/mL (≈ 589 µM) | 128 µg/mL (≈ 294 µM) |  |  |  |
| CC(C)CCC[C@@H](C)[C@H]1CC[C@H]2[C@@H]3CC[C@H]4C[C@H](NCCCN5CCCCN=C5N)CC[C@]4(C)[C@H]3CC[C@]12C |  |  |  | 2 µg/mL (≈ 3.7 µM) | 32 µg/mL (≈ 59.2 µM) | > 256 µg/mL |
| COC(=O)CCC(C)[C@H]1CCC2C3C[C@@H](O)[C@H]4C[C@@H](NCCCNCCCCNCCCN)CC[C@]4(C)C3CC[C@@]21C (stereo partly shown) [drawing 77] | 2 µg/mL (≈ 3.38 µM) | 2 µg/mL (≈ 3.38 µM) | 32 µg/mL (≈ 54.2 µM) |  |  |  |
| CC(CCC(=O)O)[C@H]1CCC2C3C(CC[C@@]21C)[C@@]1(C)CC[C@@H](NCCN)C[C@H]1C[C@H]3O (stereo partly shown) | 32 µg/mL (≈ 73.6 µM) | 64 µg/mL (≈ 147 µM) | 64 µg/mL (≈ 147 µM) |  |  |  |
| C[C@H](CCC(=O)O)[C@H]1CC[C@H]2[C@@H]3[C@H](O)C[C@@H]4C[C@@H](NCCCNCCCCNCCCN)CC[C@]4(C)[C@H]3CC[C@]12C [drawing 62] | 8 µg/mL (≈ 13.9 µM) | 32 µg/mL (≈ 55.5 µM) | 256 µg/mL (≈ 444 µM) |  |  |  |
| CC(CCC(=O)O)[C@H]1CCC2C3CC[C@@H]4C[C@H](NCCCNCCCCNCCCN)CC[C@]4(C)C3C[C@H](O)[C@@]21C (stereo partly shown) [drawing 73] | 4 µg/mL (≈ 6.93 µM) | 4 µg/mL (≈ 6.93 µM) | 8 to 16 µg/mL (≈ 13.9 to 27.7 µM) |  |  |  |
| CC(CCC(=O)O)[C@H]1CCC2C3C(CC[C@@]21C)[C@@]1(C)CC[C@@H](NCCCNCCCCNCCCN)C[C@H]1C[C@H]3O (stereo partly shown) [drawing 61] | 8 µg/mL (≈ 13.9 µM) | 8 µg/mL (≈ 13.9 µM) | 64 µg/mL (≈ 111 µM) |  |  |  |
| CC(COS(=O)(=O)O)C(=O)CC[C@@H](C)[C@H]1CC[C@H]2[C@@H]3[C@H](O)C[C@H]4C[C@@H](NCCCNCCCCN)CC[C@]4(C)[C@H]3CC[C@]12C (stereo partly shown) | 8 µg/mL (≈ 12.5 µM) |  |  |  |  |  |

Reference: patent publication US5792635A, “Method of inhibiting the sodium/proton exchanger NHE3 and method of inhibiting growth by administering squalamine” (priority 1995, dated 1998)
